US20240197733A1, “A GABA RECEPTOR MODULATOR FOR USE IN THE TREATMENT OF PAIN” (SANIONA A/S, priority 2021, published 2024)

Tests used:
[1] = test system: electrocutaneous stimulation-induced facial pain rodent model; assay: ES-induced facial pain model, hot thermal hyperalgesia (lamp test), prophylactic and acute treatment; format: in vivo, Sprague-Dawley rats; details: for development of heat hyperalgesia vs vehicle: day 9 at 0 time
Procedure: Immediately following assessment of mechanical pain threshold, thermal (hot- and cold induced) pain was determined. Hot thermal pain thresholds were assessed by measuring each rat's facial withdrawal latency (seconds) in response to thermal stimulation on the depilated and stimulated rat cheek by using Yeomans' Thermal Testing Lamp with the following settings: Lamp fixed ˜7 cm above depilated left cheek of rat, Voltage regulator was set to 45V for C fiber testing. Cutoff was set at 20 seconds to avoid tissue damage. Unless stated otherwise, the same materials, methods, and provisions of Example 1 were applied to Example 2. The required quantity of the compound is weighed and dissolved in 100% DMSO in a volume amounting to 5% of the total volume while placed on a stirrer. The weight of the compounds refers to the free base weights. Once the solution becomes clear/transparent, the remaining volume of the vehicle is added (30% HPBCD prepared in MQ water) to final concentrations of 0.03, 0.1, and 0.3 mg/ml for Compound 1. The solutions are kept on a stirrer before- and during administration of the compounds to the animals. The experimenter assessing the behavioral responses to drug administration is blinded to the drug treatment to the animals. Each treatment group is coded according the scheme below: • A. Vehicle (5% DMSO+30% HPBCD): 10 ml/kg • B. Compound 1: 0.3 mg/kg • C. Compound 1: 1 mg/kg • D. Compound 1: 3 mg/kg • F. Compound 1: 3 mg/kg—acute Second baseline measurement was carried out similarly to day 1, For each animal, the average of the two baseline nociceptive measurements was calculated within each pain modality (mechanical, heat- and cold pain), and used as baseline (“Baseline” point on figures). Then all rats in the above respective group (A-D) are given treated as mentioned. Group F received vehicle treatment. Treatment is continued once daily to each group same as Day 2 All rats were treated with respective treatment as per day 3-7. After 1 hr of treatment, each rat was subjected to 1 hr of electrocutaneous stimulation at depilated cheek (0.4 mA intensity, 10 ms duration, 1 s inter-pulse interval). Similar to day 1- and 2, all rats were acclimatized to test equipment followed by measurements of ES-induced facial mechanical- heat- and cold allodynia (“0” time point on figures). After measurement of hypersensitivity threshold, rats from group A-D received the vehicle and three doses of Compound 1 as mentioned above while group F received single acute dose of 3 mg/kg of Compound 1. Treatment effects on pain thresholds were evaluated 2- and 4 hours after administration by assessing mechanical- (Von Frey) and thermal (heat and cold) withdrawal threshold.

[2] = test system: electrocutaneous stimulation-induced facial pain rodent model; assay: ES-induced facial pain model, acute treatment, overall conclusion (mechanical and thermal tests); format: in vivo, Sprague-Dawley rats; details: 1, 3 and 10 mg/kg po
Text: The electrocutaneous stimulation-induced facial pain rodent model is a reproducible orofacial pain model in which depilated cheek area of rats are repeatedly subjected to electrical stimulation. Repeated electrical stimulation at low intensities produces craniofacial pain that mimics the behavioral characteristics of TN such as development of mechanical and thermal allodynia at cheeks despite no visible edema, swelling or excessive injury and tissue damage. Male wild type, Sprague-Dawley rats (Charles River Laboratories) born in-house at […] Research Laboratory between May 24, 2020 to May 28, 2020. […] Compound 1, vehicle and Carbamazepine was administered perorally in doses of 1, 3, and 10 mg/kg (Compound 1) or 30 mg/kg (carbamazepine) and drug effects on pain thresholds were evaluated 2- and 4 hours after drug administration by assessment of mechanical- (von Frey) and thermal hypersensitivity (heat- and cold stimulation respectively). Decrease in ES-induced pain threshold was evaluated 22 hours following electrical stimulation of the depilated left cheek area (between the eye and ear ridge, this is a receptive field of trigeminal nerve) of each rat and was manifested as facial withdrawal following application of Von Frey filaments for mechanical allodynia and a heat lamp and acetone test for thermal hyperalgesia and allodynia respectively. […]

SMILES: COc1ncc(-c2cccc(-n3cnc4cc(C(C)(C)O)cnc43)c2)c(OC)n1 [Compound 1, 2-(3-(3-(2,4-dimethoxypyrimidin-5-yl)phenyl)-3H-imidazo[4,5-b]pyridin-6-yl)propan-2-ol]
- effect on established heat hyperalgesia vs vehicle ([1]; acute 3 mg/kg po on day 9, p<0.0001 post 2 and 4 hrs): reversed the heat hyperalgesia
- effect on established heat hyperalgesia vs vehicle ([1]; prophylactic 0.3 mg/kg po plus additional dose on day 9, p<0.05 post 2 hrs, p<0.001 post 4 hrs): further enhanced the analgesic effect
- development of heat hyperalgesia vs vehicle ([1]; prophylactic 1 mg/kg po once daily for 7 days, p<0.05 vs vehicle): significantly reduced the development of heat hyperalgesia
- effect on established heat hyperalgesia vs vehicle ([1]; prophylactic 1 mg/kg po plus additional dose on day 9, p<0.0001 post 2 hrs and post 4 hrs): further enhanced the analgesic effect
- development of heat hyperalgesia vs vehicle ([1]; prophylactic 3 mg/kg po once daily for 7 days, p<0.0001 vs vehicle): significantly reduced the development of heat hyperalgesia
- effect on established heat hyperalgesia vs vehicle ([1]; prophylactic 3 mg/kg po plus additional dose on day 9, p<0.0001 post 2 hrs and post 4 hrs): further enhanced the analgesic effect
- analgesic effects (overall) [2]: significant analgesic effects in a dose dependent manner
